From PubChem BioAssay (NCI)
“And” between values parts separate entries of the source, which are not always exact repeats. Identical values can stand only once.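 48-hour exposure; five concentrations; linearly interpolated endpoints. GI50 = concentration required for 50% inhibition of growth. The concentration for full growth arrest is given as TGI.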

Tests used:
Test in all cases: NCI anticancer screen, dose series, 48 h
NCI-H460 lung = test system: NCI-H460 lung
MALME-3M melanoma = test system: MALME-3M melanoma
SK-MEL-2 melanoma = test system: SK-MEL-2 melanoma
UACC-62 melanoma = test system: UACC-62 melanoma
M14 melanoma = test system: M14 melanoma
TK-10 renal = test system: TK-10 renal
CCRF-CEM leukemia = test system: CCRF-CEM leukemia
RXF 393 renal = test system: RXF 393 renal
T-47D breast = test system: T-47D breast
MCF7 breast = test system: MCF7 breast

SMILES	TGI (NCI-H460 lung)	TGI (MALME-3M melanoma)	TGI (SK-MEL-2 melanoma)	TGI (UACC-62 melanoma)	TGI (M14 melanoma)	TGI (TK-10 renal)	TGI (CCRF-CEM leukemia)	TGI (RXF 393 renal)	GI50 (T-47D breast)	TGI (T-47D breast)	GI50 (NCI-H460 lung)	GI50 (MALME-3M melanoma)	GI50 (SK-MEL-2 melanoma)	GI50 (UACC-62 melanoma)	GI50 (M14 melanoma)	GI50 (TK-10 renal)	GI50 (CCRF-CEM leukemia)	GI50 (MCF7 breast)	TGI (MCF7 breast)	GI50 (RXF 393 renal)
N/C(=N\NS(=O)(=O)c1ccccc1)Oc1ccc(Br)cc1Br	> 100 µM	> 100 µM	> 100 µM	> 100 µM	> 100 µM	> 100 µM	> 100 µM	> 100 µM												
C[Si](C)(C)C(CCCCSc1ccccc1)(Sc1ccccc1)Sc1ccccc1	> 100 µM		> 100 µM	> 100 µM		> 100 µM	> 100 µM	> 100 µM												
Cc1c(C(=O)/C=C/C=C/c2ccccc2)[n+](=O)c2ccccc2n1[O-]	61.5 µM	66.8 µM	91.3 µM	30.2 µM	45.9 µM	> 100 µM	> 100 µM													
O=C(O)c1cc(=O)c2c([nH]c3ccccc32)s1	> 100 µM	> 100 µM	> 100 µM	> 100 µM	> 100 µM	> 100 µM	> 100 µM	> 100 µM												
CC[C@@]1(OC(=O)CN)C(=O)OCc2c1cc1n(c2=O)Cc2c-1nc1cc3c(cc1c2CCl)OCO3	4.44 µM	4.44 µM	5.04 µM	2.28 µM		7.62 µM	> 100 µM		< 0.01 µM	7.79 µM	< 10 nM	50.1 nM	1240 nM	< 0.01 µM	10.2 nM	947 nM	< 10 nM	< 0.01 µM	12.6 µM	
COC(=O)C1=C(CS(=O)c2ccc([N+](=O)[O-])cc2[N+](=O)[O-])C2C=CC1C2 (configuration not stated)	> 100 µM	79.5 µM	> 100 µM	42.2 µM	> 100 µM	51.7 µM	34.6 µM	52.1 µM												
O=C1OC(c2ccccc2)=N/C1=C\c1ccc(Oc2ccc(Cl)c(Cl)c2)cc1	> 100 µM	> 100 µM	> 100 µM	52.3 µM	> 100 µM	> 100 µM	59.9 µM	69.3 µM												
Cc1cc(NC(=O)C2C3C=CC(O3)C2C(=O)O)no1 (configuration not stated)	> 100 µM	> 100 µM	> 100 µM	> 100 µM	> 100 µM	> 100 µM	38.5 µM	31 µM												
NNc1cnn(-c2ccccc2)c(=O)c1Cl	> 100 µM	> 100 µM	> 100 µM	> 100 µM	> 100 µM	> 100 µM	> 100 µM	> 100 µM												
Cc1ccc(S(=O)(=O)N=NC=C2c3ccccc3N(O)c3ccccc32)cc1	5.99 µM	25.5 µM	17.8 µM	18.8 µM	23.2 µM	16.5 µM	2.93 µM													
O=c1cc(-c2ccc(O)cc2)oc2cc(O[C@@H]3O[C@H](CO)[C@@H](O)[C@H](O)[C@H]3O)cc(O)c12	> 100 µM		> 100 µM	> 100 µM	> 100 µM	> 100 µM	> 100 µM			> 100 µM									> 100 µM	
O=C(C#Cc1ccccc1)N1c2ccccc2CC1c1c[nH]c2ccccc12 (configuration not stated)	42.3 µM	37.6 µM	26.6 µM	22.8 µM	28.8 µM	44.2 µM	32 µM	19.5 µM												
Cn1cccc1-c1cc(-c2ccccc2)[nH]c(=O)c1C#N	> 100 µM	> 100 µM	> 100 µM	> 100 µM		> 100 µM	> 100 µM	> 100 µM	> 100 µM	> 100 µM	> 100000 nM	> 100000 nM	> 100000 nM	95 µM		> 100000 nM	> 100000 nM	> 100 µM	> 100 µM	> 100 µM
CCOC(=O)CN(Cn1cncn1)Cn1cncn1	57.1 µM	> 100 µM	> 100 µM	> 100 µM		> 100 µM	> 100 µM	36 µM												
COC(=O)C12CC(NC(=O)c3csc([C@@H](C[C@H](C(C)C)N(C)C(=O)[C@@H](NC(=O)[C@H]4CCCCN4C)C4CC4)OC(C)=O)n3)(C1)C2	> 16.7 µM	> 16.7 µM	> 16.7 µM	> 16.7 µM	> 5.28 µM	> 16.7 µM	> 8.79 µM				47.2 nM	35.7 nM	33 nM	0.0153 µM	9.88 nM	1150 nM	6.13 nM	0.00813 µM	> 16.7 µM	
CCc1cccc(C)c1NC(=O)CCc1nnc2s/c(=C\c3cccc4ccccc34)c(=O)n12	> 100 µM	> 100 µM	> 100 µM	> 100 µM	> 100 µM	> 100 µM	> 100 µM	> 100 µM												
CC(=O)NC(CCCCN)C(=O)NCc1ccccc1 (configuration not stated)	> 100 µM	> 100 µM	> 100 µM	> 100 µM	> 100 µM	> 100 µM	> 100 µM	> 100 µM												
CC(C)(O)/C=C/C(=O)[C@](C)(O)[C@H]1[C@H](O)C[C@@]2(C)[C@@H]3CC=C4[C@@H](C[C@H](O)C(=O)C4(C)C)[C@]3(C)C(=O)C[C@]12C	20.4 µM	0.932 µM	0.0829 µM and 0.131 µM	0.947 µM and 2.44 µM	5.94 µM	0.473 µM and 0.495 µM	0.62 µM and 3.04 µM	0.408 µM and 0.263 µM			50.9 nM		29.4 nM	0.0736 µM	56.3 nM		46.2 nM			0.187 µM
COc1ccc(Nc2nc3ccccc3c3occc23)cc1	> 50 µM		22.5 µM	11.4 µM	18.9 µM	16.4 µM		19.1 µM			> 50000 nM		8680 nM	5.48 µM	9720 nM	6830 nM		7.02 µM	27.2 µM	5.42 µM
O=c1c2cc(-c3ccccc3)sc2ncn1Cc1ccc(Cl)c(Cl)c1	> 100 µM		57.3 µM	28 µM	> 100 µM			48.2 µM	31.8 µM	> 100 µM	12100 nM		12200 nM	13 µM	25700 nM			12.1 µM	> 100 µM	17.1 µM
O=c1cccccc1NCCCCCCCNc1cccccc1=O	> 100 µM	> 100 µM	> 100 µM	84.5 µM	74.6 µM		67.2 µM	25.8 µM												
